The values that follow come from patent US20220015355A1, “NOVEL CARRIER FLUIDS FOR LIQUID FUNGAL SPORE FORMULATIONS” (priority 2018, published 2022).

Read-outs that look alike come from different tables or passages of the source.

Data set [1] deals with P. lilacinum strain 251 spores. In words: spore viability (germination rate on agar) of P. lilacinum spores in carrier fluid after storage at 30° C. Type of data set: cell-based, Purpureocillium lilacinum. The protocol:
(§1) 3 g of P. lilacinum strain 251 pure spore powder were transferred into a formulation vessel (IKA Type DT-20 mixing vessel with dispersion tool for Ultra Turrax) using a sterile spoon. 12 mL of fluid were added into the respective formulation vessel and dispersed using ultra turrax tube drive control for 1 min at 3000 rpm; change direction after 30 sec. After this 2.8 mL were transferred in four sample bottles (Wheaton Serum vial, Type I) leaving little headspace and closed tight using crimpneck caps (Macherey—Nagel type N 13) Afterwards all sample bottles were transferred to an incubator set at 30° C. and stored for a given time.
(§2) In regular intervals a sample was retrieved from the storage location and analyzed for spore viability. Therefore the original samples were thoroughly homogenized. Aliquots of 0.25 g or […] of each sample are transferred into 50 mL falcon tubes. The tubes were filled up to 25 g using a sterile aqueous solution containing 2% Tween 80 and homogenized by vortexing to achieve the first dilution step (1:100 dilution). This dilution is used for further dilution and spotting on agar.
(§3) For evaluation of spore germination rate prepare a 1:30000 dilution based on the 1:100 dilution achieved by multiple automated dilution (pipetting robot, 96 well plate). Afterwards 12×12 cm agar plates are taken and spotted with 10 times […] of each sample using an automated 12-Channel pipet. Wait until liquid is soaked up by agar and transfer agar plate to an incubator and incubate at 25° C. for 17 hours. Open the plate and place it under the microscope. Randomly choose one area per spot and record the number of germinated and non-germinated spores that are within the designated field. At least 200 spores per sample need to be evaluated. If needed count more than one field per spot.

The test system of data set [2] is Isaria fumosorosea spores. In words: spore viability of Isaria fumosorosea spores in carrier fluid after storage at 30° C., Method 1 (germination on agar). Type of data set: cell-based. The protocol: as §1, with “Method 1: 1.5 g” for “3 g”, “of Isaria fumosorosea” for “of P. lilacinum strain 251”, “spoon. 13.5” for “spoon. 12”
as §2
For evaluation of spore germination rate a 1:15000 dilution based on the 1:100 dilution achieved by multiple automated dilution (pipetting robot, 96 well plate) was prepared. Afterwards 12×12 cm agar plates were taken and spotted with 10 times 5 μL of each sample using an automated 12-Channel pipet. After all liquid is soaked up by agar the agar plates were incubated at 23° C. for 16 hours.

The test system of data set [3] is Isaria fumosorosea spores. In words: spore viability of Isaria fumosorosea spores in carrier fluid after storage, Method 2 (flow cytometry). Type of data set: cell-based. On the procedure: Method 2: 0.5 g of Isaria fumosoresea pure spore powder were transferred into an Erlenmeyer flask using a sterile spoon. 24.5 mL of fluid were dispersed using Ultra-Turrax (IKA; Type T 25 D) for 1 min at 3,000 rpm. After this, 2.0 mL were transferred in 20 sample bottles (Wheaton Serum vial, Type I) leaving little headspace and closed tight using crimpneck caps (Macherey—Nagel type N 13). Afterwards all sample bottles were transferred to an incubator set at 30° C. and stored for a given time.
In regular intervals a sample was retrieved from the storage location and analyzed for spore viability. For this purpose, the original samples were thoroughly homogenized. Aliquots of 0.5 g of each sample were transferred into 100 mL-Erlenmeyer flask. The flasks were filled up to 50 g using a sterile aqueous solution containing 0.1% Break Thru® 5240 (Evonik, Industries) and homogenized on a magnetic stirrer (Thermo Fisher Scientific: Cimarec™) at least for 15 min with 750 rpm to achieve the first dilution step (1:100 dilution). This dilution was used for further dilution.
Not all samples mixed well or mixed at all in 0.1% Break Thru 5240. For these samples, 500 μL Neo-wett (Kwizda Agro GmbH) and/or a small amount (knife tip) Metaupon®-OMT (LEUNA Tenside GmbH) were also added to the aqueous solution.
After homogenization 1 mL were transferred into a 1.5 mL tube and were centrifuged for 15 min at 14,000 rpm (Thermo Fisher Scientific, Type Megafuge 8R). The supernatant (=upper phase) was discarded by using a pipette. The tubes were filled up to 1 mL using a sterile aqueous solution containing 0.1% Neo-wett and homogenized by vortexing.
To assess fungal viability, a method based on flow cytometry was used.

Data set [4] concerns Beauveria Bassiana spores. In words: spore viability (germination rate on agar) of Beauveria bassiana spores in carrier fluid after storage at 30° C. The format is cell-based. On the procedure: as §1, with “1.5 g” for “3 g”, “of Beauveria Bassiana” for “of P. lilacinum strain 251”, “spoon. 13.5” for “spoon. 12”
as §2
as §3, with “1:15000” for “1:30000”, “20°” for “25°”

The subject of data set [5] is Penicillium bilaii (ATCC 20851) spores. The data set is described as follows: spore viability (germination rate on agar) of Penicillium bilaii spores in carrier fluid after storage at 30° C. Type of data set: cell-based. The protocol: as §1, with “1.5 g” for “3 g”, “of Penicillium bilaii (ATCC 20851)” for “of P. lilacinum strain 251”, “spoon. 13.5” for “spoon. 12”
as §2
as §3, with “1:15000” for “1:30000”, “20°” for “25°”

Setting [6] is: P. lilacinum strain 251 in the liquid, day 1.
Where [7] appears, read: I. fumosorosea, Method 1, day 1.
Where [8] appears, read: Method 1, storage at 30° C., 27 d.
Where [9] appears, read: Method 1, storage at 30° C., 210 d.

Consider “Polyethyleneglycol-400 dioleate [Radiasurf 7442]”, for which, in data set [1], the “spore viability [%] after 1 m (27-28 d)” value is given as 98.2%, the “spore viability [%] after 2 m (51-55 d)” value was found to be 96.8%, the “spore viability [%] after 2 w (12-15 d)” value is listed as 96.5% and the “spore viability [%] after 7 m (210 d)” value was 88.3%. Further, the “spore viability [%] at day 1” value in data set [1] came out at 98.7%. For the same molecule, in data set [2], the “spore viability [%] after 1 m (27 d)” value was 72.1% and the “spore viability [%] at day 1” value stood at 89.4%. Also, in data set [3], the “spore viability [%] after 1 m (27 d)” value came out at 66.3%, the “spore viability [%] after 2 w (~14 d)” value is 69.6% and the “spore viability [%] at day 1” value was determined as 87.4%. Further, in data set [4], the “spore viability [%] after 3 w (21 d)” value came to 33.2% and the “spore viability [%] at day 1” value was 85.9%. In data set [5], the “spore viability [%] 3 m@30° C. (83-85 d)” value was 76.5%, the “spore viability [%] 6 w@30° C. (41-43 d)” value is reported as 91% and the “spore viability [%] initial (1-2 d)” value is given as 96.7%.

As for “Polyethyleneglycol-400 monooleate [Radiasurf 7403]”, in data set [1], the “spore viability [%] after 1 m (27-28 d)” value is reported as 98.9%, the “spore viability [%] after 2 m (51-55 d)” value turned out to be 93.7%, the “spore viability [%] after 2 w (12-15 d)” value stood at 98.3% and the “spore viability [%] after 7 m (210 d)” value is reported as 78.3%. Besides, the “spore viability [%] at day 1” value in data set [1] was found to be 98.6%. For the same molecule, in data set [2], the “spore viability [%] after 1 m (27 d)” value is on record as 76.2% and the “spore viability [%] at day 1” value came out at 94.0%. In data set [3], the “spore viability [%] after 1 m (27 d)” value was 92.0%, the “spore viability [%] after 2 w (~14 d)” value is listed as 86.0% and the “spore viability [%] at day 1” value was found to be 89.0%. Moreover, in data set [4], the “spore viability [%] after 2 w (14 d)” value is 77.3%, the “spore viability [%] after 5 w (35 d)” value is recorded as 72.3%, the “spore viability [%] at day 1” value turned out to be 81.4% and the “spore viability after storage for 3w or longer at 30° C.” value is listed as at least 50%. In addition, in data set [5], the “spore viability [%] 3 m@30° C. (83-85 d)” value was 61.8%, the “spore viability [%] 6 w@30° C. (41-43 d)” value is reported as 66.8% and the “spore viability [%] initial (1-2 d)” value is 78.1%.

Regarding `COC(C)COC(C)COC(C)=O` (stereo not drawn) [Dowanol DPMA, Dipropylene glycol methyl ether acetate], the “spore viability [%] at day 1” value in data set [1] (setting [6]) was found to be 99.1%; in data set [2] (setting [7]) it was 87.7%. In addition, the “spore viability [%] after 3 m (87-92 d)” value in data set [1] (storage at 30° C., 87-92 d) is listed as 35.7%. Also, the “spore viability [%] after 5 w (35 d)” value in data set [1] (storage at 30° C., 35 d) turned out to be 93.0%. Further, in data set [2] (setting [8]), the “spore viability [%] after 1 m (27 d)” value is 63.6%. Further, the “spore viability [%] after 7 m (210 d)” value in data set [2] (setting [9]) was 31.4%.

`COC(C)COC(C)COC(C)CO` (stereo not drawn) [Dowanol TPM, Tripropylene Glycol monomethyl ether]: the “spore viability [%] at day 1” value was 85.4% in data set [1] (setting [6]); 88.0% in data set [2] (setting [7]); 82.0% in data set [3] (I. fumosorosea, Method 2, day 1); 63.9% in data set [4] (Beauveria bassiana, day 1). The “spore viability [%] after 2 w (12-15 d)” value in data set [1] (storage at 30° C., 12-15 d) came to 94.3%. Moreover, the “spore viability [%] after 1 m (27-28 d)” value in data set [1] (storage at 30° C., 27-28 d) was 95.6%. The “spore viability [%] after 2 m (51-55 d)” value in data set [1] (storage at 30° C., 51-55 d) is given as 84.5%. The “spore viability [%] after 1 m (27 d)” value stood at 65.4% in data set [2] (setting [8]) and 59.0% in data set [3] (Method 2, storage at 30° C., 27 d). Also, the “spore viability [%] after 7 m (210 d)” value in data set [2] (setting [9]) is on record as 52.6%. In addition, in data set [4] (storage at 30° C., 14 d), the “spore viability [%] after 2 w (14 d)” value stood at 19.0%. In addition, the “spore viability [%] after 5 w (35 d)” value in data set [4] (storage at 30° C., 35 d) was determined as 15.5%. Further, the “spore viability [%] initial (1-2 d)” value in data set [5] (Penicillium bilaii, 1-2 d) is given as 67.2%. Moreover, the “spore viability [%] 6 w@30° C. (41-43 d)” value in data set [5] (storage at 30° C., 41-43 d) was determined as 7.6%. Besides, in data set [5] (storage at 30° C., 83-85 d), the “spore viability [%] 3 m@30° C. (83-85 d)” value came to 2.8%.

“Polyethyleneglycol-200 monooleate [Radiasurf 7402]”: in data set [1], the “spore viability [%] after 1 m (27-28 d)” value came out at 64.8%, the “spore viability [%] after 2 m (51-55 d)” value was 34.7%, the “spore viability [%] after 2 w (12-15 d)” value was 83.6% and the “spore viability [%] at day 1” value is on record as 96.7%. In addition, in data set [2], the “spore viability [%] after 1 m (27 d)” value worked out at 11.6%, the “spore viability [%] after 7 m (210 d)” value was 1.1% and the “spore viability [%] at day 1” value was determined as 92.5%. In data set [3], the “spore viability [%] after 1 m (27 d)” value is given as 15.8%, the “spore viability [%] after 2 w (~14 d)” value worked out at 20.5% and the “spore viability [%] at day 1” value was 89.9%.

Consider `CCCCOCCOCCO` [Butylcarbitol, diethylenglycol monobutylether, reference compound], for which the “spore viability [%] at day 1” value came to 92.7% in data set [1] (setting [6]); 19.1% in data set [2] (setting [7]); 53.3% in data set [4] (Beauveria bassiana, day 1). For the same molecule, in data set [1] (storage at 30° C., 12-15 d), the “spore viability [%] after 2 w (12-15 d)” value was 62.1%. In data set [1] (storage at 30° C., 27-28 d), the “spore viability [%] after 1 m (27-28 d)” value was found to be 10.8%. The “spore viability [%] after 2 m (51-55 d)” value in data set [1] (storage at 30° C., 51-55 d) was determined as 3.2%. Besides, the “spore viability [%] after 7 m (210 d)” value in data set [1] (storage at 30° C., 210 d) was found to be 0.6%; in data set [2] (setting [9]) it was 2.4%. The “decline in spore viability at day 1 and after storage” value in data set [1] (text summary of Table I, fluids not within the scope of the invention) was “steep decline in spore viability”. Moreover, the “spore viability [%] after 1 m (27 d)” value in data set [2] (setting [8]) was 0.5%. Besides, the “decline in spore viability after storage under given conditions” value in data set [4] (Table III, fluids not within the scope of the invention) is reported as “steep decline in spore viability”. In addition, the “spore viability [%] after 5 w (35 d)” value in data set [4] (storage at 30° C., 35 d) was determined as 0.8%.
